pIC50: −log10 of the molar value.
Target: T1, RORc (Homo sapiens, UniProt P51449)
T1 sequence (P51449 269-508 limits assumed): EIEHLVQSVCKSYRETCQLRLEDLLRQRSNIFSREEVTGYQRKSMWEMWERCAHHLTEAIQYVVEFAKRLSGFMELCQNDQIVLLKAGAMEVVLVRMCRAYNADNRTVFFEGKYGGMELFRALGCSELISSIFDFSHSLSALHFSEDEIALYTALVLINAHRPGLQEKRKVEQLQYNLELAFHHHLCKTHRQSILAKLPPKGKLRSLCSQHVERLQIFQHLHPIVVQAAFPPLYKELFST
Test: In vitro RORc ligand binding assay (25-[3H]hydroxycholesterol displacement)
Conditions: IC50, IC50 values for RORc; unit inferred
Procedure: This assay was used to determine a compound's potency in inhibiting activity of RORc by determining, Kiapp, IC50, or percent inhibition values.
On day of the assay, 100 uL of 0.05% CHAPS (in deionized H2O) was added to all wells of the GFB Unifilter plate and allowed soak for 1 h. A wash buffer of 50 mM HEPES (pH 7.4), 150 mM NaCl, and 5 mM MgCl2 was prepared to wash the filter plate. To prepare an assay buffer, BSA was added to the wash buffer to reach 0.01% and DTT was added to reach 1 mM.
The 20× compound stocks were diluted in DMSO with Assay Buffer 4-fold to reach 5× the final test concentration in 25% DMSO (10 uL compound+30 uL Assay Buffer). Solutions were mixed by aspiration several times with a pipette set on 50 uL volume. For the assay, 10 uL of 5× compound stock solutions in 25% DMSO were added to the assay plate in duplicate.
For two point screening, 10 mM stock compound solutions were diluted in DMSO to obtain 200 uM (20× the high test concentration) and then diluted 10-fold further to reach 20 uM (20× the low test concentration). The 20× stocks were diluted 4-fold with Assay Buffer (10 uL compound+30 uL Assay Buffer) to reach 5× the test concentrations (50 uM and 5 uM) and 10 uL were added to two assay plates for the duplicate wells. With each concentration tested on 2 plates, each set of 80 compounds used 4 assay plates (1 uM and 10 uM, with n=2).
For 25-hydroxycholesterol in 25% DMSO/75% Assay Buffer; 10 uL per well was used for NSB samples. Wells for Total Binding and No Receptor sample determination contained 10 uL of 25% DMSO/75% Assay Buffer per well.
Add 20 uL to all wells to reach 6 nM final in the assay.
Stock receptor solution was diluted in assay buffer to obtain 1.5 ug/mL in Assay Buffer. 20 uL was added to all wells. For No R samples, 20 uL Assay Buffer was substituted for receptor solution.
Assay plates were 96-well polypropylene V-bottom plates. 10 uL of 5× compound in 25% DMSO/75% Assay Buffer was added to Test wells. 10 uL of 25% DMSO/75% Assay Buffer was added to Total Binding or No Receptor wells. 10 uL of 5 uM 25-hydroxycholesterol in 25% DMSO/75% Assay Buffer was added to NSB wells. […] 20 uL of 1.5 ug/mL RORc receptor was added to wells (or 40 uL Assay Buffer to No R wells). Following addition to the wells, the plates were incubated 3 h at 25° C.
Using a Packard Filtermate Harvester, the filter plate were washed 4 times following transfer of the incubated samples. Plates were dry-filtered completely (2 h at 50° C. or overnight at room temperature). 50 uL Microscint 0 was added to all wells and read on Topcount protocol Inverted.
For NSB wells, 1 uM 25-hydroxycholesterol was also present.

| pIC50 | Structure (SMILES) |
| --- | --- |
| 7.66 | C[C@H]1CC[C@H](c2ccccc2)S(=O)(=O)N1Cc1ccc([C@]2(C(N)=O)CC[C@@H](n3cnnc3)CC2)cc1F [Compound 25, 1-[3-Fluoro-4-((3S,6R)-3-methyl-1,1-dioxo-6-phenyl-[1,2]thiazinan-2-ylmethyl)-phenyl]-4-[1,2,4]triazol-4-yl-cyclohexanecarboxylic acid amide] |
| 7.57 | C[C@H]1CC[C@H](c2ccccc2)S(=O)(=O)N1Cc1cc(F)c(C2(OCC(=O)O)COC2)cc1F [Compound 135, 2-[3-[2,5-difluoro-4-[[(3S,6R)-3-methyl-1,1-dioxo-6-phenyl-thiazinan-2-yl]methyl]phenyl]oxetan-3-yl]oxyacetic acid] |
| 6.67 | C[C@H]1CC[C@H](c2ccccc2)S(=O)(=O)N1Cc1cc(F)c(C2(C(=O)O)CCOCC2)cc1F [Compound 96, 4-[2,5-difluoro-4-[[(3S,6R)-3-methyl-1,1-dioxo-6-phenyl-thiazinan-2-yl]methyl]phenyl]tetrahydropyran-4-carboxylic acid] |
| 6.60 | CC(=O)NCCNC(=O)C1(c2ccc(CN3[C@@H](C)CC[C@H](c4ccccc4)S3(=O)=O)c(F)c2)CCOCC1 [Compound 50, N-(2-acetamidoethyl)-4-[3-fluoro-4-[[(3S,6R)-3-methyl-1,1-dioxo-6-phenyl-thiazinan-2-yl]methyl]phenyl]tetrahydropyran-4-carboxamide] |
| 6.17 | C[C@H]1CC[C@H](c2ccccc2)S(=O)(=O)N1Cc1ccc(C2(C#N)CCOCC2)cc1 [Compound 30, 4-[4-((3S,6R)-3-Methyl-1,1-dioxo-6-phenyl-[1,2]thiazinan-2-ylmethyl)-phenyl]-tetrahydro-pyran-4-carbonitrile] |
| 7.30 | C[C@H]1CC[C@H](c2ccccc2)S(=O)(=O)N1Cc1cc(F)c(C2(CO)CC2)cc1F [Compound 126, [1-[2,5-difluoro-4-[[(3S,6R)-3-methyl-1,1-dioxo-6-phenyl-thiazinan-2-yl]methyl]phenyl]cyclopropyl]methanol] |
| 6.92 | CCOC(=O)[C@@H](C)NC1(c2ccc(CN3[C@@H](C)CC[C@H](c4ccccc4)S3(=O)=O)c(F)c2)CCOCC1 [Compound 172, ethyl (2R)-2-[[4-[3-fluoro-4-[[(3S,6R)-3-methyl-1,1-dioxo-6-phenyl-thiazinan-2-yl]methyl]phenyl]tetrahydropyran-4-yl]amino]propanoate] |
| 6.19 | C[C@H]1CC[C@H](c2ccccc2)S(=O)(=O)N1Cc1ccc(C2(CN)CCOCC2)cc1F [Compound 75, [4-[3-fluoro-4-[[(3S,6R)-3-methyl-1,1-dioxo-6-phenyl-thiazinan-2-yl]methyl]phenyl]tetrahydropyran-4-yl]methanamine] |
| 6.92 | CC(=O)N1CCC(O)(c2ccc(CN3[C@@H](C)CCC(c4ccccc4)S3(=O)=O)cc2)CC1 (stereo partly drawn) [Compound 49, 1-{4-Hydroxy-4-[4-((S)-3-methyl-1,1-dioxo-6-phenyl-[1,2]thiazinan-2-ylmethyl)-phenyl]-piperidin-1-yl}-ethanone] |
| 6.74 | C[C@H]1CC[C@H](c2ccccc2)S(=O)(=O)N1Cc1ccc(C2(O)CCC3(CC2)OCCO3)cc1F [Compound 24, 8-[3-Fluoro-4-((3S,6R)-3-methyl-1,1-dioxo-6-phenyl-[1,2]thiazinan-2-ylmethyl)-phenyl]-1,4-dioxa-spiro[4.5]decan-8-ol] |
| 6.95 | C[C@H]1CC[C@H](c2ccccc2)S(=O)(=O)N1Cc1ccc(C2(C(=O)NCCS(C)(=O)=O)CCOCC2)cc1F [Compound 60, 4-[3-fluoro-4-[[(3S,6R)-3-methyl-1,1-dioxo-6-phenyl-thiazinan-2-yl]methyl]phenyl]-N-(2-methylsulfonylethyl)tetrahydropyran-4-carboxamide] |
| 7.39 | CCOC(=O)[C@H](C)NC1(c2ccc(CN3[C@@H](C)CC[C@H](c4ccccc4)S3(=O)=O)c(F)c2)CCOCC1 [Compound 184, ethyl (2S)-2-[[4-[3-fluoro-4-[[(3S,6R)-3-methyl-1,1-dioxo-6-phenyl-thiazinan-2-yl]methyl]phenyl]tetrahydropyran-4-yl]amino]propanoate] |
| 8.28 | C[C@H]1CC[C@H](c2ccccc2)S(=O)(=O)N1Cc1cc(F)c(C2(CO)CCC(n3cnnc3)CC2)cc1F (stereo partly drawn) [Compound 133, [1-[2,5-difluoro-4-[[(3S,6R)-3-methyl-1,1-dioxo-6-phenyl-thiazinan-2-yl]methyl]phenyl]-4-(1,2,4-triazol-4-yl)cyclohexyl]methanol] |
| 6.48 | CC(=O)N1CCC(O)(c2ccc(CN3[C@@H](C)CC[C@H](c4ccccc4)S3(=O)=O)cc2)CC1 [Example 7, 1-{4-Hydroxy-4-[4-((3S,6R)-3-methyl-1,1-dioxo-6-phenyl-[1,2]thiazinan-2-ylmethyl)-phenyl]-piperidin-1-yl}-ethanone] |
| 7.30 | C[C@H]1CC[C@H](c2ccccc2)S(=O)(=O)N1Cc1ccc(C2(NC[C@@H](O)CO)CCOCC2)cc1F [Compound 108] |
| 6.99 | COCCCOCC1(c2ccc(CN3[C@@H](C)CC[C@H](c4ccccc4)S3(=O)=O)c(F)c2)CCOCC1 [Compound 91, (3S,6R)-2-[[2-fluoro-4-[4-(3-methoxypropoxymethyl)tetrahydro-pyran-4-yl]phenyl]methyl]-3-methyl-6-phenyl-thiazinane 1,1-dioxide] |
| 7.74 | C[C@H]1CC[C@H](c2ccccc2)S(=O)(=O)N1Cc1ccc(C2(C(N)=O)CCOCC2)cc1F [Compound 67, 4-[3-fluoro-4-[[(3S,6R)-3-methyl-1,1-dioxo-6-phenyl-thiazinan-2-yl]methyl]phenyl]tetrahydropyran-4-carboxamide] |
| 7.36 | C[C@H]1CC[C@H](c2ccccc2)S(=O)(=O)N1Cc1ccc([C@]2(C#N)C[C@H](O)C2)cc1F [Compound 178, 1-[3-fluoro-4-[[(3S,6R)-3-methyl-1,1-dioxo-6-phenyl-thiazinan-2-yl]methyl]phenyl]-3-hydroxy-cyclobutanecarbonitrile] |
| 8.05 | C[C@H]1CC[C@H](c2ccccc2)S(=O)(=O)N1Cc1cc(F)c(C2(CO)CCOCC2)cc1F [Compound 101, [4-[2,5-difluoro-4-[[(3S,6R)-3-methyl-1,1-dioxo-6-phenyl-thiazinan-2-yl]methyl]phenyl]tetrahydropyran-4-yl]methanol] |
| 7.80 | C[C@H]1CC[C@H](c2ccccc2)S(=O)(=O)N1Cc1ccc(C2(COCC(N)=O)CCOCC2)cc1F [Compound 121] |
| 6.85 | C[C@H]1CC[C@H](c2ccccc2)S(=O)(=O)N1Cc1ccc(C2(CNC(=O)OC(C)(C)C)CCOCC2)cc1F [Compound 74, tert-butyl N-[[4-[3-fluoro-4-[[(3S,6R)-3-methyl-1,1-dioxo-6-phenyl-thiazinan-2-yl]methyl]phenyl]tetrahydropyran-4-yl]methyl]carbamate] |
| 6.86 | C[C@H]1CC[C@H](c2ccccc2)S(=O)(=O)N1Cc1ccc(C2(NCCO)CCOCC2)cc1F [Compound 106, 2-[[4-[3-fluoro-4-[[(3S,6R)-3-methyl-1,1-dioxo-6-phenyl-thiazinan-2-yl]methyl]phenyl]tetrahydropyran-4-yl]amino]ethanol] |
| 6.80 | C[C@H]1CC[C@H](c2ccccc2)S(=O)(=O)N1Cc1ccc(OCC2(F)CCOCC2)cc1F [Example 5, (3S,6R)-2-[2-Fluoro-4-(4-fluoro-tetrahydro-pyran-4-ylmethoxy)-benzyl]-3-methyl-6-phenyl-[1,2]thiazinane 1,1-dioxide] |
| 7.20 | C[C@H]1CC[C@H](c2ccccc2)S(=O)(=O)N1Cc1ccc(C2(OCC(=O)O)CCOCC2)cc1F [Compound 110, 2-[4-[3-fluoro-4-[[(3S,6R)-3-methyl-1,1-dioxo-6-phenyl-thiazinan-2-yl]methyl]phenyl]tetrahydropyran-4-yl]oxyacetic acid] |
| 7.48 | CNC(=O)CNC1(c2ccc(CN3[C@@H](C)CC[C@H](c4ccccc4)S3(=O)=O)c(F)c2)CCOCC1 [Compound 173, 2-[[4-[3-fluoro-4-[[(3S,6R)-3-methyl-1,1-dioxo-6-phenyl-thiazinan-2-yl]methyl]phenyl]tetrahydropyran-4-yl]amino]-N-methyl-acetamide] |
| 8.11 | C[C@H]1CC[C@H](c2ccccc2)S(=O)(=O)N1Cc1ccc(C2(CCC#N)CCOCC2)cc1F [Compound 86, 3-[4-[3-fluoro-4-[[(3S,6R)-3-methyl-1,1-dioxo-6-phenyl-thiazinan-2-yl]methyl]phenyl]tetrahydropyran-4-yl]propanenitrile] |
| 8.60 | C[C@H]1CC[C@H](c2ccccc2)S(=O)(=O)N1Cc1cc(F)c(C2(OCC(=O)NCCO)COC2)cc1F [Compound 176, 2-[3-[2,5-difluoro-4-[[(3S,6R)-3-methyl-1,1-dioxo-6-phenyl-thiazinan-2-yl]methyl]phenyl]oxetan-3-yl]oxy-N-(2-hydroxyethyl)acetamide] |
| 7.17 | C[C@H]1CC[C@H](c2ccccc2)S(=O)(=O)N1Cc1ccc(OCC2(C)CCOCC2)cc1F [Example 2, (3S,6R)-2-[2-Fluoro-4-(4-methyl-tetrahydro-pyran-4-ylmethoxy)-benzyl]-3-methyl-6-phenyl-[1,2]thiazinane 1,1-dioxide] |
| 6.64 | C[C@H]1CC[C@H](c2ccccc2)S(=O)(=O)N1Cc1ccc(C2(C(=O)NCC(=O)O)CCOCC2)cc1F [Compound 58, 2-[[4-[3-fluoro-4-[[(3S,6R)-3-methyl-1,1-dioxo-6-phenyl-thiazinan-2-yl]methyl]phenyl]tetrahydropyran-4-carbonyl]amino]acetic acid] |
| 5.57 | C[C@H]1CC[C@H](c2ccccc2)S(=O)(=O)N1Cc1ccc([C@]2(C(=O)O)CC[C@H](n3cnnc3)CC2)cc1 [Example 13, 1-[4-((3S,6R)-3-Methyl-1,1-dioxo-6-phenyl-[1,2]thiazinan-2-ylmethyl)-phenyl]-4-[1,2,4]triazol-4-yl-cyclohexane-carboxylic acid] |
